The values below come from US8362018B2, “Substituted imidazo[1,2-a]pyrazine compounds useful for the treatment of viral infections” (Biofocus DPI, Ltd., priority 2007, dated 2013).

Series [1] can be described thus: cytotoxicity measurement (CC50), Table 13. As to conditions: human, Huh7 cells. The format is cell-based.
The subject of the next series is HCV replicon. Kind of series: anti-viral assay (EC50), Table 13. It is filed as cell-based. The following applies: Hepatitis C virus, anti-viral assays. From the text: The ability of a compound to inhibit HCV replication can be measured in vitro or using animal models using models and assays well known to those of skill in the art (e.g. Pietschmann et al, Clin Liver Dis. 7(1)c23-43, 2003). In vitro techniques for measuring the ability of a compound to inhibit HCV replication involve using HCV or an HCV replicon. Because HCV is difficult to grow in culture, particular in vitro techniques employ an HCV replicon.
An HCV replicon is an RNA molecule able to autonomously replicate in a cultured cell, such as Huh7. The HCV replicon expresses the HCV derived components of the replication machinery and contains cis-elements required for replication in a cultured cell. […]

On to `NS(=O)(=O)c1ccc(CNc2nccn3c(-c4ccc5c(c4)OCO5)cnc23)cc1` [Compound 8], for which, in series [1], the CC50 (in general, the concentration giving 50% cytotoxicity) was under 35 µM. For the same compound, the EC50 (usually the concentration needed to bring the measured effect to its halfway point) in the series with HCV replicon fell in the range of 1 to 20 µM.

Compound `COc1ccc(-c2cnc3c(NCCNC(C)=O)nccn23)cc1OC` [Compound 26] had a CC50 in series [1] of over 35 µM. Also, the EC50 in the series with HCV replicon was 1 to 20 µM.

For the compound `NS(=O)(=O)c1ccc(CNc2nccn3c(-c4ccc(O)c(F)c4)cnc23)cc1` [Compound 25], the CC50 in series [1] was over 35 µM. In the series on HCV replicon, the half-maximal effective concentration (EC50) was under 1 µM.

The compound `COc1ccc(-c2cnc3c(NCc4ccc(S(N)(=O)=O)cc4)nccn23)cc1` [Compound 16] yielded a CC50 in series [1] of over 35 µM. In the series with HCV replicon, this compound showed an EC50 of 1 to 20 µM.

`COc1ccc(-c2cnc3c(NCCS(N)(=O)=O)nccn23)cc1OC` [Compound 43] gave a CC50 in series [1] of over 35 µM. The EC50 in the series on HCV replicon was over 20 µM.

In series [1], `OCc1ccc(-c2cnc3c(NCc4ccc5c(c4)OCO5)nccn23)cc1` [Compound 81] gave a CC50 of under 35 µM. Moreover, the EC50 in the series on HCV replicon lay within 1 to 20 µM.

In turn, `COc1ccc(-c2cnc3c(NCc4cccc(Cl)c4)nccn23)cc1` [Compound 44] had a CC50 in series [1] of under 35 µM. Also, the EC50 in the series with HCV replicon was in the range of 1 to 20 µM.

In series [1], `Oc1ccc(-c2cnc3c(NCc4ccc(Cl)cc4)nccn23)cc1` [Compound 34] had a CC50 of under 35 µM. In the series with HCV replicon, this compound gave an EC50 of 1 to 20 µM.

With `COc1ccc(-c2cnc3c(NCC4CCOCC4)nccn23)cc1OC` [Compound 29], the CC50 in series [1] was under 35 µM. Besides, the EC50 in the series with HCV replicon was 1 to 20 µM.

In series [1], `CC(C)c1ccc(Nc2nccn3c(-c4cccc(NS(C)(=O)=O)c4)cnc23)cc1` [Compound 70] displayed a CC50 of under 35 µM. The same compound yielded an EC50 in the series with HCV replicon of 1 to 20 µM.

`CS(=O)(=O)Nc1cccc(-c2cnc3c(NCc4cccnc4)nccn23)c1` [Compound 77] gave a CC50 in series [1] of under 35 µM. Besides, in the series on HCV replicon, the EC50 is 1 to 20 µM.

`Oc1cccc(-c2cnc3c(NCc4cccnc4)nccn23)c1` [Compound 76] showed a CC50 in series [1] of under 35 µM. The compound further yielded an EC50 in the series with HCV replicon of 1 to 20 µM.

For `CC(C)c1ccc(Nc2nccn3c(-c4ccc(O)cc4)cnc23)cc1` [Compound 69], the CC50 in series [1] is under 35 µM. This compound gave an EC50 in the series on HCV replicon of 1 to 20 µM.

Compound `COc1cc(-c2cnc3c(NCc4ccc(S(N)(=O)=O)cc4)nccn23)ccc1O` [Compound 20] came in with a CC50 in series [1] of under 35 µM. In the series with HCV replicon, this compound displayed a 50% effective concentration (EC50) of under 1 µM.

As for `NS(=O)(=O)c1ccc(CNc2nc(-c3ccc(O)cc3)cn3c(-c4ccc(O)cc4)cnc23)cc1` [Compound 114, 4-{[3,6-Bis-(4-hydroxy-phenyl)-imidazo[1,2-a]pyrazin-8-ylamino]-methyl}-benzenesulfonamide], the cytotoxic concentration (CC50) in series [1] was under 35 µM. The compound further returned an EC50 in the series on HCV replicon of under 1 µM.

`COc1ccc(-c2cnc3c(NCc4ccc(S(N)(=O)=O)cc4)nccn23)cc1OC` [Compound 9] gave a CC50 in series [1] of over 35 µM. The compound further displayed an EC50 in the series on HCV replicon of under 1 µM.

For the compound `OCc1ccc(-c2cnc3c(NCc4ccc(F)cc4)nccn23)cc1` [Compound 79], the CC50 in series [1] was under 35 µM. In addition, in the series on HCV replicon, the EC50 was 1 to 20 µM.

Turning to `COc1cccc(-c2cnc3c(NCc4ccc(S(N)(=O)=O)cc4)nccn23)c1` [Compound 12], in series [1], the CC50 is over 35 µM. In the series on HCV replicon, this compound had a half-maximal effective concentration (EC50) of 1 to 20 µM.

As for `COc1ccc(-c2cnc3c(NCc4ccccc4)nccn23)cc1OC` [Compound 14], the CC50 in series [1] was over 35 µM. The compound further came in with a 50% effective concentration (EC50) in the series with HCV replicon of 1 to 20 µM.

In the case of `CNS(=O)(=O)c1ccc(CNc2nccn3c(-c4ccc(OC)cc4)cnc23)cc1` [Compound 100], the CC50 in series [1] was over 35 µM. Also, the EC50 in the series with HCV replicon is 1 to 20 µM.

For the compound `NS(=O)(=O)c1ccc(CNc2nccn3c(-c4cccc(F)c4)cnc23)cc1` [Compound 67], the CC50 in series [1] was under 35 µM. This compound also had an EC50 in the series with HCV replicon of 1 to 20 µM.

In series [1], `NS(=O)(=O)c1ccc(CNc2nccn3c(-c4ccc(O)c(O)c4)cnc23)cc1` [Compound 89] registered a CC50 of over 35 µM. Besides, the EC50 in the series with HCV replicon is over 20 µM.

Take `Oc1ccc(-c2cnc3c(NCc4ccc(C(F)(F)F)cc4)nccn23)cc1` [Compound 39]: the CC50 in series [1] was under 35 µM. In addition, in the series with HCV replicon, the EC50 lay in the range of 1 to 20 µM.

As for `NS(=O)(=O)c1ccc(CNc2nccn3c(-c4ccc(CO)o4)cnc23)cc1` [Compound 46], the cytotoxic concentration (CC50) in series [1] is over 35 µM. Also, the EC50 with HCV replicon is 1 to 20 µM.

In turn, `Oc1ccc(-c2cnc3c(NCCc4ccncc4)nccn23)cc1` [Compound 2] returned a CC50 in series [1] of under 35 µM. For the same compound, the EC50 with HCV replicon was in the range of 1 to 20 µM.

For `COCCCNc1nccn2c(-c3ccc(OC)c(OC)c3)cnc12` [Compound 78], in series [1], the CC50 is under 35 µM. Also, in the series with HCV replicon, the EC50 was in the range of 1 to 20 µM.

In turn, `Cc1cc(O)ccc1-c1cnc2c(NCc3ccc(S(N)(=O)=O)cc3)nccn12` [Compound 33] displayed a CC50 in series [1] of over 35 µM. For the same compound, the half-maximal effective concentration (EC50) with HCV replicon was in the range of 1 to 20 µM.

`COc1ccc(-c2cnc3c(NCc4ccc(C(=O)O)cc4)nccn23)cc1OC` [Compound 92, 4-{[3-(3,4-Dimethoxy-phenyl)-imidazo[1,2-a]pyrazin-8-ylamino]-methyl}-benzoic acid] gave a cytotoxic concentration (CC50) in series [1] of over 35 µM. The compound also registered a concentration giving a half-maximal response (EC50) in the series on HCV replicon of 1 to 20 µM.

`CCNS(=O)(=O)c1ccc(CNc2nccn3c(-c4ccc(OC)cc4)cnc23)cc1` [Compound 101]: the CC50 in series [1] is over 35 µM. In the series on HCV replicon, this compound gave a 50% effective concentration (EC50) of 1 to 20 µM.

In turn, `CS(=O)(=O)Nc1cccc(-c2cnc3c(NCc4ccc5c(c4)OCO5)nccn23)c1` [Compound 73] gave a CC50 in series [1] of under 35 µM. The EC50 in the series on HCV replicon lay within 1 to 20 µM.

The compound `Oc1ccc(-c2cnc3c(NCc4cccc(Cl)c4)nccn23)cc1` [Compound 99] displayed a CC50 in series [1] of under 35 µM. In the series on HCV replicon, this compound showed an EC50 of 1 to 20 µM.

As for `OCc1ccc(CNc2nccn3c(-c4ccc(O)cc4)cnc23)cc1` [Compound 47], the cytotoxic concentration (CC50) in series [1] was under 35 µM. The compound further had an EC50 in the series on HCV replicon of 1 to 20 µM.

The compound `COc1cc(CNc2nccn3c(-c4ccc(O)cc4)cnc23)cc(OC)c1OC` [Compound 60] yielded a CC50 in series [1] of under 35 µM. The EC50 with HCV replicon is 1 to 20 µM.

In series [1], `O=C(O)c1ccc(CNc2nccn3c(-c4ccc(O)cc4)cnc23)cc1` [Compound 52] yielded a CC50 of over 35 µM. For the same compound, the EC50 in the series with HCV replicon is over 20 µM.

For the compound `Cc1cn2c(-c3ccc(O)c(F)c3)cnc2c(NCc2ccc(S(N)(=O)=O)cc2)n1` [Compound 111], the CC50 in series [1] is over 35 µM. The compound further returned an EC50 in the series on HCV replicon of under 1 µM.

Regarding `NS(=O)(=O)c1ccc(CNc2nccn3c(-c4ccccc4)cnc23)cc1` [Compound 74], the 50% cytotoxic concentration (CC50) in series [1] is under 35 µM. The compound also registered an EC50 in the series with HCV replicon of 1 to 20 µM.

On to `Nc1ccc(-c2cnc3c(NCc4ccc(S(N)(=O)=O)cc4)nccn23)cc1` [Compound 50], for which the CC50 in series [1] was over 35 µM. Further, the EC50 in the series with HCV replicon is 1 to 20 µM.

The compound `COc1ccc(-c2cnc3c(NCc4cccs4)nccn23)cc1OC` [Compound 66] came in with a CC50 in series [1] of under 35 µM. Moreover, in the series with HCV replicon, the EC50 lay within 1 to 20 µM.

For `CS(=O)(=O)Nc1ccc(-c2cnc3c(NCc4ccc(S(N)(=O)=O)cc4)nccn23)cc1` [Compound 28], the CC50 in series [1] was over 35 µM. The EC50 with HCV replicon was over 20 µM.

Turning to `Cc1ccc(CNc2nccn3c(-c4ccc(O)cc4)cnc23)cc1` [Compound 38], in series [1], the CC50 is over 35 µM. This compound showed an EC50 with HCV replicon of 1 to 20 µM.

`Oc1ccc(-c2cnc3c(NCc4cccnc4)nccn23)cc1` [Compound 58] showed a CC50 in series [1] of under 35 µM. In the series with HCV replicon, this compound gave an EC50 of 1 to 20 µM.

`Cc1cn2c(-c3ccc(O)cc3)cnc2c(NCc2ccc(S(N)(=O)=O)cc2)n1` [Compound 110, 4-{[3-(4-Hydroxy-phenyl)-6-methyl-imidazo[1,2-a]pyrazin-8-ylamino]-methyl}-benzenesulfonamide]: the CC50 in series [1] was under 35 µM. The compound further yielded a concentration giving a half-maximal response (EC50) in the series on HCV replicon of under 1 µM.
